Values after ≈ are worked out from the molar mass of the structure shown.
How the values were obtained:
Format in all cases: functional
[1] = test system: Mycobacterium tuberculosis; assay: Antimycobacterial activity against streptomycin-resistant Mycobacterium tuberculosis 136570 assessed as growth inhibition after 2 to 3 weeks by turbidometry
[2] = test system: Mycobacterium tuberculosis; assay: Antimycobacterial activity against isoniazid-resistant Mycobacterium tuberculosis 912253 assessed as growth inhibition after 2 to 3 weeks by turbidometry
[3] = test system: Mycobacterium tuberculosis; assay: Antimycobacterial activity against rifampin-resistant Mycobacterium tuberculosis 19000 assessed as growth inhibition after 2 to 3 weeks by turbidometry
[4] = test system: Mycobacterium tuberculosis; assay: Antimycobacterial activity against ethambutol-resistant Mycobacterium tuberculosis 17003 assessed as growth inhibition after 2 to 3 weeks by turbidometry
[5] = test system: Mycobacterium tuberculosis; assay: Antimycobacterial activity against ofloxacin-resistant Mycobacterium tuberculosis 12119 assessed as growth inhibition after 2 to 3 weeks by turbidometry
[6] = test system: Mycobacterium tuberculosis; assay: Antimycobacterial activity against Mycobacterium tuberculosis overexpressing DprE1 assessed as growth inhibition by resazurin assay
[7] = test system: Mycobacterium tuberculosis; assay: Antimycobacterial activity against BTZ043-resistant Mycobacterium tuberculosis harboring DprE1 C-G mutant assessed as growth inhibition by resazurin assay
[8] = test system: Mycobacterium tuberculosis; assay: Antimycobacterial activity against BTZ043-resistant Mycobacterium tuberculosis harboring DprE1 C-S mutant assessed as growth inhibition by resazurin assay
[9] = test system: Mycobacterium tuberculosis; assay: Antimycobacterial activity against 3-cyclopropyl-1-phenyl-5-((3-(trifluoromethyl)benzylamino)-methyl)-1H-pyrazolo[3,4-b]pyridin-6(7H)-one-resistant Mycobacterium tuberculosis clone 8.1 assessed as growth inhibition by resazurin assay; settings: clone 8.1, 7 h
[10] = test system: Mycobacterium tuberculosis; assay: Antimycobacterial activity against 3-cyclopropyl-1-phenyl-5-((3-(trifluoromethyl)benzylamino)-methyl)-1H-pyrazolo[3,4-b]pyridin-6(7H)-one-resistant Mycobacterium tuberculosis clone 8.2 assessed as growth inhibition by resazurin assay; settings: clone 8.2, 7 h
[11] = test system: Mycobacterium tuberculosis; assay: Antimycobacterial activity against 3-cyclopropyl-1-phenyl-5-((3-(trifluoromethyl)benzylamino)-methyl)-1H-pyrazolo[3,4-b]pyridin-6(7H)-one-resistant Mycobacterium tuberculosis clone 8.3 assessed as growth inhibition by resazurin assay; settings: clone 8.3, 7 h

Cc1nn(-c2ccccc2)c2[nH]c(=O)c(CNCc3cccc(C(F)(F)F)c3)cc12
MIC [1]: 3.1 µM (≈ 1.28 µg/mL)
MIC [2]: 6.2 µM (≈ 2.56 µg/mL)
MIC [3]: 3.1 µM (≈ 1.28 µg/mL)
MIC [4]: 3.1 µM (≈ 1.28 µg/mL)
MIC [5]: 1.6 µM (≈ 0.66 µg/mL)
MIC [6]: 2.5 µM (≈ 1.03 µg/mL)
MIC [7]: 0.3 µM (≈ 0.124 µg/mL)
MIC [8]: 100 µM (≈ 41.2 µg/mL)
MIC [9]: > 100 µM
MIC [10]: 100 µM (≈ 41.2 µg/mL)
MIC [11]: 0.2 µM (≈ 0.0825 µg/mL)

O=c1[nH]c2c(cc1CNCc1cccc(C(F)(F)F)c1)c(C1CC1)nn2-c1ccccc1
MIC [1]: 1.6 µM (≈ 0.702 µg/mL)
MIC [2]: 3.1 µM (≈ 1.36 µg/mL)
MIC [3]: 1.6 µM (≈ 0.702 µg/mL)
MIC [4]: 1.6 µM (≈ 0.702 µg/mL)
MIC [5]: 1.6 µM (≈ 0.702 µg/mL)
MIC [6]: 0.6 µM (≈ 0.263 µg/mL)
MIC [7]: 50 µM (≈ 21.9 µg/mL)
MIC [8]: >100 µM
MIC [9]: 50 µM (≈ 21.9 µg/mL)
MIC [10]: 0.1 µM (≈ 0.0438 µg/mL)
MIC [11]: 0.2 µM (≈ 0.0877 µg/mL)

O=c1[nH]c2c(cc1CNCc1cccc(C(F)(F)F)n1)c(C1CC1)nn2-c1ccccc1
MIC [6]: 50 µM (≈ 22 µg/mL)
MIC [7]: 100 µM (≈ 43.9 µg/mL)
MIC [8]: 100 µM (≈ 43.9 µg/mL)
MIC [9]: 1.2 µM (≈ 0.527 µg/mL)
MIC [10]: > 100 µM
MIC [11]: 0.2 µM (≈ 0.0879 µg/mL)

O=c1[nH]c2c(cc1CNCc1cc(C(F)(F)F)ccc1F)c(C1CC1)nn2-c1ccccc1
MIC [6]: 100 µM (≈ 45.6 µg/mL)
MIC [7]: 25 µM (≈ 11.4 µg/mL)
MIC [8]: 1.2 µM (≈ 0.548 µg/mL)
MIC [9]: 100 µM (≈ 45.6 µg/mL)
MIC [10]: 0.08 µM (≈ 0.0365 µg/mL)
MIC [11]: 0.2 µM (≈ 0.0913 µg/mL)

O=c1[nH]c2c(cc1CNCc1cccc(C(F)(F)F)c1F)c(C1CC1)nn2-c1ccccc1
MIC [6]: 25 µM (≈ 11.4 µg/mL)
MIC [7]: 1.2 µM (≈ 0.548 µg/mL)
MIC [8]: >100 µM
MIC [9]: 0.6 µM (≈ 0.274 µg/mL)
MIC [10]: 0.04 µM (≈ 0.0183 µg/mL)
MIC [11]: 0.2 µM (≈ 0.0913 µg/mL)

Cc1ccc(C(F)(F)F)cc1CNCc1cc2c(C3CC3)nn(-c3ccccc3)c2[nH]c1=O
MIC [6]: 1.2 µM (≈ 0.543 µg/mL)
MIC [7]: >100 µM
MIC [8]: 0.3 µM (≈ 0.136 µg/mL)
MIC [9]: 0.3 µM (≈ 0.136 µg/mL)
MIC [10]: > 100 µM
MIC [11]: 0.2 µM (≈ 0.0905 µg/mL)

C[C@H]1COC2(CCN(c3nc(=O)c4cc(C(F)(F)F)cc([N+](=O)[O-])c4s3)CC2)O1 [BTZ-043]
MIC [6]: > 100 µM
MIC [7]: 0.6 µM (≈ 0.259 µg/mL)
MIC [8]: 0.3 µM (≈ 0.129 µg/mL)
MIC [9]: > 100 µM
MIC [10]: 100 µM (≈ 43.1 µg/mL)
MIC [11]: 12.5 µM (≈ 5.39 µg/mL)

CC[C@@H](CO)NCCN[C@@H](CC)CO [ETHAMBUTOL]
MIC [1]: 2 µM (≈ 0.409 µg/mL)
MIC [2]: 2 µM (≈ 0.409 µg/mL)
MIC [3]: 2 µM (≈ 0.409 µg/mL)
MIC [4]: > 20 µM
MIC [5]: 2 µM (≈ 0.409 µg/mL)

NNC(=O)c1ccncc1 [ISONIAZID]
MIC [1]: 0.2 µM (≈ 0.0274 µg/mL)
MIC [2]: > 29 µM
MIC [3]: 0.2 µM (≈ 0.0274 µg/mL)
MIC [4]: 0.2 µM (≈ 0.0274 µg/mL)
MIC [5]: 0.2 µM (≈ 0.0274 µg/mL)
MIC [6]: 100 µM (≈ 13.7 µg/mL)
MIC [7]: 0.3 µM (≈ 0.0411 µg/mL)
MIC [8]: 0.1 µM (≈ 0.0137 µg/mL)
MIC [9]: 100 µM (≈ 13.7 µg/mL)
MIC [10]: > 100 µM
MIC [11]: 0.2 µM (≈ 0.0274 µg/mL)

CC1COc2c(N3CCN(C)CC3)c(F)cc3c(=O)c(C(=O)O)cn1c23 (stereo not drawn) [OFLOXACIN]
MIC [1]: 0.7 µM (≈ 0.253 µg/mL)
MIC [2]: 0.7 µM (≈ 0.253 µg/mL)
MIC [3]: 0.7 µM (≈ 0.253 µg/mL)
MIC [4]: 0.7 µM (≈ 0.253 µg/mL)
MIC [5]: > 5 µM

CO[C@H]1/C=C/O[C@@]2(C)Oc3c(C)c(O)c4c(O)c(c(/C=N/N5CCN(C)CC5)c(O)c4c3C2=O)NC(=O)/C(C)=C\C=C\[C@H](C)[C@H](O)[C@@H](C)[C@@H](O)[C@@H](C)[C@H](OC(C)=O)[C@@H]1C [RIFAMPIN]
MIC [1]: 0.02 µM (≈ 0.0165 µg/mL)
MIC [2]: 0.02 µM (≈ 0.0165 µg/mL)
MIC [3]: > 5 µM
MIC [4]: 0.02 µM (≈ 0.0165 µg/mL)
MIC [5]: 0.02 µM (≈ 0.0165 µg/mL)

CN[C@@H]1[C@H](O[C@H]2[C@H](O[C@H]3[C@H](O)[C@@H](O)[C@H](N=C(N)N)[C@@H](O)[C@@H]3N=C(N)N)O[C@@H](C)[C@]2(O)C=O)O[C@@H](CO)[C@H](O)[C@H]1O [STREPTOMYCIN]
MIC [1]: > 5 µM
MIC [2]: 0.3 µM (≈ 0.174 µg/mL)
MIC [3]: 0.3 µM (≈ 0.174 µg/mL)
MIC [4]: 0.3 µM (≈ 0.174 µg/mL)
MIC [5]: 0.3 µM (≈ 0.174 µg/mL)

Reference: ChEMBL document CHEMBL3259779, “Discovery of pyrazolopyridones as a novel class of noncovalent DprE1 inhibitor with potent anti-mycobacterial activity” (J Med Chem, 2014)
